Values of other authors as cited in patent US11273125B2, “Preparation of desiccated liposomes for use in compressible delivery systems” (SMARTEK INTERNATIONAL LLC, priority 2017, dated 2022).

Details: poor bioavailability of the unformulated compound; route and species not given

- bioavailability: approximately 5%
SMILES: COc1ccc2c(=O)cc(-c3ccccc3)oc2c1 [7-methoxyflavone]
